US20240336654A1, “ANTIMICROBIAL PEPTIDOMIMETICS” (SPEXIS AG, priority 2021, published 2024)
Where a SMILES comes first, the peptide text is derived from it. Bridges are numbered along the chain shown (N, C = ends). [ ]: non-standard residue; d: D form. The star is where a group is joined. Val(Nα-amidino) = CC(C)[C@H](NC(=N)N)C(=O)*; dDab(iPr) = CC(C)NCC[C@@H](N)C(=O)O; Dab(iPr) = CC(C)NCC[C@H](N)C(=O)O; Hyp = O=C(O)[C@@H]1C[C@@H](O)CN1; Cha = N[C@@H](CC1CCCCC1)C(=O)O; Pen = CC(C)(S)[C@H](N)C(=O)O; dDab = NCC[C@@H](N)C(=O)O; Nle = CCCC[C@H](N)C(=O)O; Orn = NCCC[C@H](N)C(=O)O; Dab = NCC[C@H](N)C(=O)O

Experiments:
Assay type in all cases: cell-based
[1] = system: human red blood cells (hRBC); conditions: red cells of human, 1 h, 200 μg/mL
In short: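 Percent hemolysis derived from OD540 of supernatants relative to full lysis by 2.5% Triton X-100 (PBS baseline). Washed fresh human erythrocytes (20% v/v) were exposed to 200 μg/mL peptide for 1 h at 37 °C with shaking.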

[2] = system: Escherichia coli MCR-1 Af 45; conditions: MCR-1 Af 45
In short: (§1)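 MICs were determined by CLSI broth microdilution in cation-adjusted Mueller-Hinton II broth with about 5×10^5 CFU/mL inoculum. Peptides were tested in two-fold serial dilutions with 0.002% polysorbate 80 final. MIC in μg/mL is the lowest concentration with no visible growth after 18-20 h at 35 °C.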

[3] = system: Klebsiella pneumoniae SSI3010; conditions: SSI3010
In short: as §1

[4] = system: Escherichia coli ATCC 25922; conditions: ATCC 25922
In short: as §1

Structure (SMILES): CC[C@H](C)[C@H](NC(=O)[C@@H]1C[C@@H](O)CN1C(=O)[C@@H](N)C(C)C)C(=O)N[C@@H]1C(=O)N[C@@H](Cc2ccc(O)cc2)C(=O)N[C@@H](CO)C(=O)N[C@@H](CC(N)=O)C(=O)N[C@@H](CCCNC(=N)N)C(=O)N[C@@H](CCN)C(=O)N[C@@H]([C@@H](C)O)C(=O)N[C@H](CCN)C(=O)N[C@@H](CCCCN)C(=O)N[C@@H](CCN)C(=O)N[C@@H](CCCN)C(=O)N[C@H](C(=O)N[C@@H](Cc2ccc(O)cc2)C(=O)O)CSSC1(C)C [Example 64, Val-Hyp-Ile-Pen-Tyr-Ser-Asn-Arg-Dab-Thr-^DDab-Lys-Dab-Orn-Cys-Tyr] (H-V[Hyp]I[Pen]YSNR[Dab]T[dDab]K[Dab][Orn]CY-OH; disulfide 4-15)
- Hemolysis at 0.2 g/L [1]: <1%
- Escherichia coli MCR-1 Af45 MIC [2]: 0.0625 mg/L
- Klebsiella pneumoniae SSI3010 MIC [3]: 0.125 mg/L
- Escherichia coli ATCC 25922 MIC [4]: 0.0625 mg/L

Structure (SMILES): CC[C@H](C)[C@H](NC(=O)[C@@H]1C[C@@H](O)CN1C(=O)[C@@H](N)C(C)C)C(=O)N[C@@H]1C(=O)N[C@@H](Cc2ccc(O)cc2)C(=O)N[C@@H](CO)C(=O)N[C@@H](CC(N)=O)C(=O)N[C@@H](CCCNC(=N)N)C(=O)N[C@@H](CCN)C(=O)N[C@@H]([C@@H](C)O)C(=O)N[C@H](CCN)C(=O)N[C@@H](CCCCN)C(=O)N[C@@H](CCN)C(=O)N[C@@H](CCN)C(=O)N[C@H](C(=O)N[C@@H](CC2CCCCC2)C(=O)O)CSSC1(C)C [Example 65, Val-Hyp-Ile-Pen-Tyr-Ser-Asn-Arg-Dab-Thr-^DDab-Lys-Dab-Dab-Cys-Cha] (H-V[Hyp]I[Pen]YSNR[Dab]T[dDab]K[Dab][Dab]C[Cha]-OH; disulfide 4-15)
- Hemolysis at 0.2 g/L [1]: <1%
- Escherichia coli MCR-1 Af45 MIC [2]: 0.0625 mg/L
- Klebsiella pneumoniae SSI3010 MIC [3]: 0.25 mg/L
- Escherichia coli ATCC 25922 MIC [4]: 0.25 mg/L

Structure (SMILES): CC[C@H](C)[C@H](NC(=O)[C@@H]1C[C@@H](O)CN1C(=O)[C@@H](N)C(C)C)C(=O)N[C@@H]1C(=O)N[C@@H](Cc2ccc(O)cc2)C(=O)N[C@@H](CO)C(=O)N[C@@H](CC(N)=O)C(=O)N[C@@H](CCCNC(=N)N)C(=O)N[C@@H](CCN)C(=O)N[C@@H]([C@@H](C)O)C(=O)N[C@H](CCN)C(=O)N[C@@H](CCCCN)C(=O)N[C@@H](CCN)C(=O)N[C@@H](CCN)C(=O)N[C@H](C(=O)N[C@@H](Cc2c[nH]c3ccccc23)C(=O)O)CSSC1(C)C [Example 66, Val-Hyp-Ile-Pen-Tyr-Ser-Asn-Arg-Dab-Thr-^DDab-Lys-Dab-Dab-Cys-Trp] (H-V[Hyp]I[Pen]YSNR[Dab]T[dDab]K[Dab][Dab]CW-OH; disulfide 4-15)
- Hemolysis at 0.2 g/L [1]: <1%
- Escherichia coli MCR-1 Af45 MIC [2]: 0.0625 mg/L
- Klebsiella pneumoniae SSI3010 MIC [3]: 0.125 mg/L
- Escherichia coli ATCC 25922 MIC [4]: 0.0625 mg/L

Structure (SMILES): CCCC[C@H](NC(=O)[C@@H]1CSSC(C)(C)[C@H](NC(=O)[C@@H](NC(=O)[C@@H]2C[C@@H](O)CN2C(=O)[C@@H](N)C(C)C)[C@@H](C)CC)C(=O)N[C@@H](Cc2ccc(O)cc2)C(=O)N[C@@H](CO)C(=O)N[C@@H](CC(N)=O)C(=O)N[C@@H](CCCNC(=N)N)C(=O)N[C@@H](CCN)C(=O)N[C@@H]([C@@H](C)O)C(=O)N[C@H](CCN)C(=O)N[C@@H](CCCCN)C(=O)N[C@@H](CCN)C(=O)N[C@@H](CCN)C(=O)N1)C(=O)O [Example 67, Val-Hyp-Ile-Pen-Tyr-Ser-Asn-Arg-Dab-Thr-^DDab-Lys-Dab-Dab-Cys-Nle] (H-V[Hyp]I[Pen]YSNR[Dab]T[dDab]K[Dab][Dab]C[Nle]-OH; disulfide 4-15)
- Hemolysis at 0.2 g/L [1]: <1%
- Escherichia coli MCR-1 Af45 MIC [2]: 0.0625 mg/L
- Klebsiella pneumoniae SSI3010 MIC [3]: 0.125 mg/L
- Escherichia coli ATCC 25922 MIC [4]: 0.0625 mg/L

Structure (SMILES): CC[C@H](C)[C@H](NC(=O)[C@@H]1C[C@@H](O)CN1C(=O)[C@@H](NC(=N)N)C(C)C)C(=O)N[C@@H]1C(=O)N[C@@H](Cc2ccc(O)cc2)C(=O)N[C@@H]([C@@H](C)O)C(=O)N[C@@H](CC(N)=O)C(=O)N[C@@H](CCCNC(=N)N)C(=O)N[C@@H](CCN)C(=O)N[C@@H]([C@@H](C)O)C(=O)N[C@H](CCN)C(=O)N[C@@H](CCCCN)C(=O)N[C@@H](CCN)C(=O)N[C@@H](CCN)C(=O)N[C@H](C(=O)N[C@@H](Cc2ccc(O)cc2)C(=O)O)CSSC1(C)C [Example 68, Gua-Val-Hyp-Ile-Pen-Tyr-Thr-Asn-Arg-Dab-Thr-^DDab-Lys-Dab-Dab-Cys-Tyr] ({Val(Nα-amidino)}-[Hyp]I[Pen]YTNR[Dab]T[dDab]K[Dab][Dab]CY-OH; disulfide 3-14)
- Hemolysis at 0.2 g/L [1]: <1%
- Escherichia coli MCR-1 Af45 MIC [2]: 0.03125 mg/L
- Klebsiella pneumoniae SSI3010 MIC [3]: 0.125 mg/L
- Escherichia coli ATCC 25922 MIC [4]: 0.0625 mg/L

Structure (SMILES): CC[C@H](C)[C@H](NC(=O)[C@@H]1C[C@@H](O)CN1C(=O)[C@@H](NC(=N)N)C(C)C)C(=O)N[C@@H]1C(=O)N[C@@H](Cc2ccc(O)cc2)C(=O)N[C@@H](CCN)C(=O)N[C@@H](CC(N)=O)C(=O)N[C@@H](CCCNC(=N)N)C(=O)N[C@@H](CCN)C(=O)N[C@@H]([C@@H](C)O)C(=O)N[C@H](CCN)C(=O)N[C@@H](CCCCN)C(=O)N[C@@H](CO)C(=O)N[C@@H](CCN)C(=O)N[C@H](C(=O)N[C@@H](Cc2ccc(O)cc2)C(=O)O)CSSC1(C)C [Example 69, Gua-Val-Hyp-Ile-Pen-Tyr-Dab-Asn-Arg-Dab-Thr-^DDab-Lys-Ser-Dab-Cys-Tyr] ({Val(Nα-amidino)}-[Hyp]I[Pen]Y[Dab]NR[Dab]T[dDab]KS[Dab]CY-OH; disulfide 3-14)
- Hemolysis at 0.2 g/L [1]: <1%
- Escherichia coli MCR-1 Af45 MIC [2]: 0.0625 mg/L
- Klebsiella pneumoniae SSI3010 MIC [3]: 0.0625 mg/L
- Escherichia coli ATCC 25922 MIC [4]: 0.0625 mg/L

Structure (SMILES): CC[C@H](C)[C@H](NC(=O)[C@@H]1C[C@@H](O)CN1C(=O)[C@@H](NC(=N)N)C(C)C)C(=O)N[C@@H]1C(=O)N[C@@H](Cc2ccc(O)cc2)C(=O)N[C@@H](CO)C(=O)N[C@@H](CC(N)=O)C(=O)N[C@@H](CCCNC(=N)N)C(=O)N[C@@H](CCNC(C)C)C(=O)N[C@@H]([C@@H](C)O)C(=O)N[C@H](CCN)C(=O)N[C@@H](CCCCN)C(=O)N[C@@H](CCNC(C)C)C(=O)N[C@@H](CCN)C(=O)N[C@H](C(=O)N[C@@H](Cc2ccc(O)cc2)C(=O)O)CSSC1(C)C [Example 70, Gua-Val-Hyp-Ile-Pen-Tyr-Ser-Asn-Arg-Da b(iPr)-Thr-^DDab-Lys-Dab(iPr)-Dab-Cys-Tyr] ({Val(Nα-amidino)}-[Hyp]I[Pen]YSNR[Dab(iPr)]T[dDab]K[Dab(iPr)][Dab]CY-OH; disulfide 3-14)
- Hemolysis at 0.2 g/L [1]: <1%
- Escherichia coli MCR-1 Af45 MIC [2]: 0.0625 mg/L
- Klebsiella pneumoniae SSI3010 MIC [3]: 0.25 mg/L
- Escherichia coli ATCC 25922 MIC [4]: 0.125 mg/L

Structure (SMILES): CC[C@H](C)[C@H](NC(=O)[C@@H]1C[C@@H](O)CN1C(=O)[C@@H](NC(=N)N)C(C)C)C(=O)N[C@@H]1C(=O)N[C@@H](Cc2ccc(O)cc2)C(=O)N[C@@H](CO)C(=O)N[C@@H](CC(N)=O)C(=O)N[C@@H](CCCNC(=N)N)C(=O)N[C@@H](CCN)C(=O)N[C@@H]([C@@H](C)O)C(=O)N[C@H](CCNC(C)C)C(=O)N[C@@H](CCCCN)C(=O)N[C@@H](CCN)C(=O)N[C@@H](CCN)C(=O)N[C@H](C(=O)N[C@@H](Cc2ccc(O)cc2)C(=O)O)CSSC1(C)C [Example 71, Gua-Val-Hyp-Ile-Pen-Tyr-Ser-Asn-Arg-Dab-Thr-^DDab(iPr)-Lys-Dab-Dab-Cys-Tyr] ({Val(Nα-amidino)}-[Hyp]I[Pen]YSNR[Dab]T[dDab(iPr)]K[Dab][Dab]CY-OH; disulfide 3-14)
- Hemolysis at 0.2 g/L [1]: <1%
- Escherichia coli MCR-1 Af45 MIC [2]: 0.0625 mg/L
- Klebsiella pneumoniae SSI3010 MIC [3]: 0.125 mg/L
- Escherichia coli ATCC 25922 MIC [4]: 0.0625 mg/L

Structure (SMILES): CC[C@H](C)[C@H](NC(=O)[C@@H]1C[C@@H](O)CN1C(=O)[C@@H](NC(=N)N)C(C)C)C(=O)N[C@@H]1C(=O)N[C@@H](Cc2ccc(O)cc2)C(=O)N[C@@H](CCN)C(=O)N[C@@H](CC(N)=O)C(=O)N[C@@H](CCCNC(=N)N)C(=O)N[C@@H](CCN)C(=O)N[C@@H]([C@@H](C)O)C(=O)N[C@H](CCN)C(=O)N[C@@H](CCCCN)C(=O)N[C@@H]([C@@H](C)O)C(=O)N[C@@H](Cc2ccc(O)cc2)C(=O)N[C@H](C(=O)N[C@@H](Cc2ccc(O)cc2)C(=O)O)CSSC1(C)C [Example 72, Gua-Val-Hyp-Ile-Pen-Tyr-Dab-Asn-Arg-Dab-Thr-^DDab-Lys-Thr-Tyr-Cys-Tyr] ({Val(Nα-amidino)}-[Hyp]I[Pen]Y[Dab]NR[Dab]T[dDab]KTYCY-OH; disulfide 3-14)
- Hemolysis at 0.2 g/L [1]: <1%
- Escherichia coli MCR-1 Af45 MIC [2]: 0.5 mg/L
- Klebsiella pneumoniae SSI3010 MIC [3]: 0.5 mg/L
- Escherichia coli ATCC 25922 MIC [4]: 0.5 mg/L

Structure (SMILES): CC[C@H](C)[C@@H]1NC(=O)[C@H]([C@@H](C)O)NC(=O)[C@H](CCCCN)NC(=O)[C@@H](CCN)NC(=O)[C@H]([C@@H](C)O)NC(=O)[C@H](CCN)NC(=O)[C@H](CCCNC(=N)N)NC(=O)[C@H](CC(N)=O)NC(=O)[C@H](CCN)NC(=O)[C@H](Cc2ccc(O)cc2)NC(=O)[C@@H](NC(=O)[C@@H](NC(=O)[C@@H]2C[C@@H](O)CN2C(=O)[C@@H](NC(=N)N)C(C)C)[C@@H](C)CC)C(C)(C)SSC[C@@H](C(=O)N[C@@H](Cc2ccc(O)cc2)C(=O)O)NC1=O [Example 73, Gua-Val-Hyp-Ile-Pen-Tyr-Dab-Asn-Arg-Dab-Thr-^DDab-Lys-Thr-Ile-Cys-Tyr] ({Val(Nα-amidino)}-[Hyp]I[Pen]Y[Dab]NR[Dab]T[dDab]KTICY-OH; disulfide 3-14)
- Hemolysis at 0.2 g/L [1]: <1%
- Escherichia coli MCR-1 Af45 MIC [2]: 0.5 mg/L
- Klebsiella pneumoniae SSI3010 MIC [3]: 0.5 mg/L
- Escherichia coli ATCC 25922 MIC [4]: 0.5 mg/L
